Columns and labels:
Type in all cases: physicochemical
[1] = Flash point, small scale closed-cup apparatus (ASTM D-3278-96 e-1); settings: closed-cup ASTM method; no flash point = non-flammable
Source text: The acetate was thermally decomposed and the title product separated by fractional distillation. The structure was verified by GC-MS and NMR.

[2] = Largest Soluble Hydrocarbon (LSH) test; settings: hydrofluoroolefin:hydrocarbon about 1:1 to 1:2 by weight, longest hydrocarbon compatible without haze
Experimental: Largest Soluble Hydrocarbon (LSH): The LSH of each hydrofluoroolefin compound was determined by mixing the compound with hydrocarbons of varying molecular weight (CnH2n+2, where n=9 to 24) in a hydrofluoroolefin:hydrocarbon ratio of about 1:1 to 1:2 by weight at room temperature (25° C.) and at 50° C. […] A larger value of n is interpreted herein to indicate a greater ability of the hydrofluoroolefin to clean hydrocarbons.

[3] = Open pan exposure to direct flame

Compound | Flash point [1] | LSH (n in CnH2n+2) ([2]; 25° C.) | LSH (n in CnH2n+2) ([2]; 50° C.) | Burning in an open pan upon exposure to direct flame [3]
C=CC(F)(C(F)C(F)(F)F)C(F)(F)F (stereo not drawn) [Example 1, 3,4,5,5,5-pentafluoro-3-(trifluoromethyl)pent-1-ene] | no flash point | 13 | 14 | 
C=C(C)C1C(F)C(F)(F)C(F)(F)C1(F)F (stereo not drawn) [Example 4, 1,1,2,2,3,3,4-heptafluoro-5-isopropenyl-cyclopentane] |  | 17 | 21 | not observed to burn

— US11932589B2, “Hydrofluoroolefins and methods of using same” (3M INNOVATIVE PROPERTIES COMPANY, priority 2019, dated 2024)
